This passage reports TGI results from PubChem BioAssay (NCI).

Among the test systems are 786-0 renal; SNB-19 CNS; A498 renal; DMS 273 small cell lung; NCI-H226 lung; CAKI-1 renal; RXF 393 renal; RPMI-8226 leukemia; HOP-92 NSCLC; OVCAR-3 ovarian; SNB-75 CNS; HL-60(TB) leukemia; SK-OV-3 ovarian; HS 578T breast; BT-549 breast; T-47D breast; MDA-MB-231 breast; DU-145 prostate; MCF7 breast; PC-3 prostate.
Common to all, as to test: NCI tumour cell line growth inhibition, 48 h

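Results reflect a 48-hour exposure of cells in 96-well plates to compound at five concentrations. At the TGI there is no net growth.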 Where only a bound is given, the exact number is not on record here.

With `COC(=O)C(=O)C(C(=O)C1=NS(=O)(=O)c2cc(S(N)(=O)=O)c(Cl)cc2N1)c1nc2ccc(C(=O)c3ccccc3)cc2[nH]c1=O` (stereo not drawn), the TGI in the assay on 786-0 renal, with SNB-19 CNS, with A498 renal, with DMS 273 small cell lung, in the assay with NCI-H226 lung and with CAKI-1 renal was more than 100 µM in each case. Further, the TGI in the assay on RXF 393 renal and with RPMI-8226 leukemia was more than 100 µM throughout.

With `CN1C(=O)CN2C(Cl)(Cl)C2(c2ccccc2F)c2cc([N+](=O)[O-])ccc21` (stereo not drawn), the TGI with HOP-92 NSCLC was 91.4 µM; with OVCAR-3 ovarian, more than 100 µM; in the assay with DMS 273 small cell lung, more than 100 µM; in the assay on NCI-H226 lung, 92.5 µM; in the assay on CAKI-1 renal it was more than 100 µM; in the assay on RXF 393 renal, 66 µM. Besides, the TGI in the assay with RPMI-8226 leukemia and in the assay with SNB-75 CNS was more than 100 µM throughout.

With `O=c1oc2ccccc2n1P(=O)(n1c(=O)oc2ccccc21)n1c(=O)oc2ccccc21`, the TGI with SNB-19 CNS, in the assay on HOP-92 NSCLC, in the assay with OVCAR-3 ovarian, in the assay on A498 renal, in the assay on DMS 273 small cell lung and in the assay with NCI-H226 lung was more than 100 µM throughout. In addition, the TGI with CAKI-1 renal, with RXF 393 renal, in the assay on HL-60(TB) leukemia, with SNB-75 CNS and with SK-OV-3 ovarian was more than 100 µM each time.

Regarding `CN(C)CC1CCCC(CN2CCCCC2)C1=O` (stereo not drawn), the TGI was 6.07 µM in the assay with 786-0 renal; more than 100 µM in the assay on SNB-19 CNS; 59 µM with HS 578T breast; 28.7 µM in the assay on BT-549 breast; 3.8 µM in the assay with HOP-92 NSCLC; 4.85 µM with T-47D breast. The TGI in the assay on OVCAR-3 ovarian was 17.1 µM; in the assay on A498 renal, more than 71.3 µM; in the assay with MDA-MB-231 breast, 28.3 µM; in the assay on DMS 273 small cell lung, 54.9 µM; in the assay on NCI-H226 lung, 43.1 µM; in the assay with CAKI-1 renal, 3.73 µM. In addition, the TGI stood at 26.6 µM with RXF 393 renal; 11.8 µM with HL-60(TB) leukemia; 32.5 µM in the assay on DU-145 prostate; 2.62 µM with MCF7 breast; 29 µM in the assay on PC-3 prostate; 1.29 µM in the assay on RPMI-8226 leukemia. Also, the TGI was 43.2 µM in the assay with SNB-75 CNS and more than 100 µM in the assay on SK-OV-3 ovarian.

With `C=C1C(=O)OC2/C=C(\C)C3OC3/C=C(/C(=O)OC)C(O)C(OC(=O)C3(C)OC3C)C12` (stereo not drawn), the TGI is 3.26 µM with 786-0 renal; 5.68 µM with HOP-92 NSCLC; 10 µM with OVCAR-3 ovarian; 19.6 µM in the assay on A498 renal; 3.02 µM in the assay on DMS 273 small cell lung; 32.2 µM with NCI-H226 lung. The TGI amounted to 4.97 µM in the assay on CAKI-1 renal, 2.22 µM in the assay on RXF 393 renal, 26.3 µM in the assay on SNB-75 CNS and 26.4 µM with SK-OV-3 ovarian.

Turning to `CC(N)C(=O)OCN1C(=O)C2C3C=CC(C2C1=O)C1C2C(=O)N(COC(=O)C(C)N)C(=O)C2C31` (stereo not drawn), the TGI in the assay with 786-0 renal was 37.6 µM; in the assay on SNB-19 CNS, more than 100 µM; in the assay on HOP-92 NSCLC, more than 100 µM; in the assay on OVCAR-3 ovarian it was 91.5 µM; in the assay with DMS 273 small cell lung, 36.7 µM; in the assay with NCI-H226 lung, more than 100 µM. Further, the TGI is more than 100 µM in the assay with CAKI-1 renal; 38.7 µM with RXF 393 renal; 62.2 µM in the assay with HL-60(TB) leukemia; 54.9 µM with RPMI-8226 leukemia; 85.5 µM in the assay on SNB-75 CNS; more than 100 µM in the assay with SK-OV-3 ovarian.

For the compound `CCCCC(C(=O)N/N=C/c1ccc([N+](=O)[O-])o1)C(=O)N/N=C/c1ccc([N+](=O)[O-])o1`, the TGI stood at 5.5 µM with 786-0 renal; 13.7 µM in the assay on SNB-19 CNS; 5.57 µM with HS 578T breast; 17.2 µM in the assay with BT-549 breast; 4.08 µM in the assay on HOP-92 NSCLC; 7.69 µM in the assay with T-47D breast. Further, the TGI amounted to 5.65 µM in the assay on OVCAR-3 ovarian; 41 µM in the assay with A498 renal; 12 µM in the assay on MDA-MB-231 breast; 5.1 µM with NCI-H226 lung; 14.7 µM in the assay on CAKI-1 renal; 5.07 µM in the assay on RXF 393 renal. The TGI in the assay with HL-60(TB) leukemia came out at 6.71 µM; in the assay with DU-145 prostate it was 42.9 µM; in the assay with MCF7 breast, 22.4 µM; in the assay on PC-3 prostate, 14.4 µM; in the assay with RPMI-8226 leukemia it was 3.18 µM; with SNB-75 CNS, 33.5 µM. Moreover, the TGI with SK-OV-3 ovarian came to 50.9 µM.

Regarding `Nc1nc(Cl)cc(NCCCNc2cc(Cl)nc(N)n2)n1`, the TGI in the assay on HOP-92 NSCLC, in the assay with OVCAR-3 ovarian, in the assay with A498 renal, in the assay with DMS 273 small cell lung, in the assay with NCI-H226 lung and in the assay with RXF 393 renal was more than 100 µM each time. The TGI in the assay with HL-60(TB) leukemia, with RPMI-8226 leukemia, with SNB-75 CNS and in the assay on SK-OV-3 ovarian was more than 100 µM throughout.
